Reference: PubChem BioAssay AID1259407 (Chemical Carcinogenesis Research Information System (CCRIS), 2018)
Activity calls are given as the source filed them. No rule for the calls is given here.

Tested on: CCRIS mutagenicity, Ames/micronucleus/aberration tests
Test: CCRIS mutagenicity studies
[1] = Test System: AMES SALMONELLA TYPHIMURIUM, Strain/Indicator: TA100, Metabolic Activation: NONE, Method: STANDARD PLATE
[2] = Test System: E. COLI, Strain/Indicator: WP2 UVRA, Metabolic Activation: NONE, Method: STANDARD PLATE
[3] = Test System: AMES SALMONELLA TYPHIMURIUM, Strain/Indicator: TA98, Metabolic Activation: NONE, Method: STANDARD PLATE

O=C1c2c(O)cccc2Cc2cccc(O)c21
mutagenic call (Test System: AMES SALMONELLA TYPHIMURIUM, Strain/Indicator: TA97, Metabolic Activation: HAMSTER, LIVER, S-9, AROCLOR 1254 (10%), Method: PREINCUBATION): inactive; negative
mutagenic call (Test System: AMES SALMONELLA TYPHIMURIUM, Strain/Indicator: TA97, Metabolic Activation: HAMSTER, LIVER, S-9, AROCLOR 1254 (30%), Method: PREINCUBATION): inactive; negative
mutagenic call (Test System: AMES SALMONELLA TYPHIMURIUM, Strain/Indicator: TA97, Metabolic Activation: NONE, Method: PREINCUBATION): inactive; negative
mutagenic call (Test System: AMES SALMONELLA TYPHIMURIUM, Strain/Indicator: TA97, Metabolic Activation: RAT, LIVER, S-9, AROCLOR 1254 (10%), Method: PREINCUBATION): inactive; negative
mutagenic call (Test System: AMES SALMONELLA TYPHIMURIUM, Strain/Indicator: TA97, Metabolic Activation: RAT, LIVER, S-9, AROCLOR 1254 (30%), Method: PREINCUBATION): inactive; negative
mutagenic call (Test System: AMES SALMONELLA TYPHIMURIUM, Strain/Indicator: TA98, Metabolic Activation: HAMSTER, LIVER, S-9, AROCLOR 1254 (10%), Method: PREINCUBATION): inactive; negative
mutagenic call (Test System: AMES SALMONELLA TYPHIMURIUM, Strain/Indicator: TA98, Metabolic Activation: HAMSTER, LIVER, S-9, AROCLOR 1254 (30%), Method: PREINCUBATION): inactive; negative
mutagenic call (Test System: AMES SALMONELLA TYPHIMURIUM, Strain/Indicator: TA98, Metabolic Activation: NONE, Method: PREINCUBATION): inactive; negative
mutagenic call (Test System: AMES SALMONELLA TYPHIMURIUM, Strain/Indicator: TA98, Metabolic Activation: RAT, LIVER, S-9, AROCLOR 1254 (10%), Method: PREINCUBATION): inactive; negative
mutagenic call (Test System: AMES SALMONELLA TYPHIMURIUM, Strain/Indicator: TA98, Metabolic Activation: RAT, LIVER, S-9, AROCLOR 1254 (30%), Method: PREINCUBATION): inactive; negative
mutagenic call (Test System: AMES SALMONELLA TYPHIMURIUM, Strain/Indicator: TA100, Metabolic Activation: FISH, LIVER, S-9, 3-METHYLCHOLANTHRENE, Method: STANDARD PLATE): inactive; negative
mutagenic call (Test System: AMES SALMONELLA TYPHIMURIUM, Strain/Indicator: TA100, Metabolic Activation: HAMSTER, LIVER, S-9, AROCLOR 1254 (10%), Method: PREINCUBATION): inactive; negative
mutagenic call (Test System: AMES SALMONELLA TYPHIMURIUM, Strain/Indicator: TA100, Metabolic Activation: HAMSTER, LIVER, S-9, AROCLOR 1254 (30%), Method: PREINCUBATION): inactive; negative
mutagenic call (Test System: AMES SALMONELLA TYPHIMURIUM, Strain/Indicator: TA100, Metabolic Activation: NONE, Method: PREINCUBATION): inactive; negative
mutagenic call [1]: inactive; negative
mutagenic call (Test System: AMES SALMONELLA TYPHIMURIUM, Strain/Indicator: TA100, Metabolic Activation: RAT, LIVER, S-9, AROCLOR 1254 (10%), Method: PREINCUBATION): inactive; negative
mutagenic call (Test System: AMES SALMONELLA TYPHIMURIUM, Strain/Indicator: TA100, Metabolic Activation: RAT, LIVER, S-9, AROCLOR 1254 (30%), Method: PREINCUBATION): inactive; negative
mutagenic call (Test System: AMES SALMONELLA TYPHIMURIUM, Strain/Indicator: TA1535, Metabolic Activation: HAMSTER, LIVER, S-9, AROCLOR 1254 (10%), Method: PREINCUBATION): inactive; negative
mutagenic call (Test System: AMES SALMONELLA TYPHIMURIUM, Strain/Indicator: TA1535, Metabolic Activation: HAMSTER, LIVER, S-9, AROCLOR 1254 (30%), Method: PREINCUBATION): inactive; negative
mutagenic call (Test System: AMES SALMONELLA TYPHIMURIUM, Strain/Indicator: TA1535, Metabolic Activation: NONE, Method: PREINCUBATION): inactive; negative
mutagenic call (Test System: AMES SALMONELLA TYPHIMURIUM, Strain/Indicator: TA1535, Metabolic Activation: RAT, LIVER, S-9, AROCLOR 1254 (10%), Method: PREINCUBATION): inactive; negative
mutagenic call (Test System: AMES SALMONELLA TYPHIMURIUM, Strain/Indicator: TA1535, Metabolic Activation: RAT, LIVER, S-9, AROCLOR 1254 (30%), Method: PREINCUBATION): inactive; negative
mutagenic call (Test System: AMES SALMONELLA TYPHIMURIUM, Strain/Indicator: TA1537, Metabolic Activation: NONE, Method: STANDARD PLATE): inactive; negative
mutagenic call (Test System: AMES SALMONELLA TYPHIMURIUM, Strain/Indicator: TA1537, Metabolic Activation: RAT, LIVER, S-9, PHENOBARBITAL AND BETA-NAPHTHOFLAVONE, Method: STANDARD PLATE): active; positive
mutagenic call (Test System: E. COLI, Strain/Indicator: WP2, Metabolic Activation: NONE, Method: STANDARD PLATE): inactive; negative
mutagenic call (Test System: E. COLI, Strain/Indicator: WP2, Metabolic Activation: RAT, LIVER, S-9, AROCLOR 1254, Method: STANDARD PLATE): inactive; negative
mutagenic call [2]: inactive; negative
mutagenic call (Test System: E. COLI, Strain/Indicator: WP2 UVRA, Metabolic Activation: RAT, LIVER, S-9, AROCLOR 1254, Method: STANDARD PLATE): inactive; negative

OC(c1ccc(Cl)cc1)(c1ccc(Cl)cc1)C1CC1
mutagenic call (Test System: AMES SALMONELLA TYPHIMURIUM, Strain/Indicator: TA97, Metabolic Activation: NONE, Method: STANDARD PLATE): inactive; negative
mutagenic call (Test System: AMES SALMONELLA TYPHIMURIUM, Strain/Indicator: TA97, Metabolic Activation: RAT, LIVER, S-9, AROCLOR 1254, Method: STANDARD PLATE): inactive; negative
mutagenic call [3]: inactive; negative
mutagenic call (Test System: AMES SALMONELLA TYPHIMURIUM, Strain/Indicator: TA98, Metabolic Activation: RAT, LIVER, S-9, AROCLOR 1254, Method: STANDARD PLATE): inactive; negative
mutagenic call [1]: inactive; negative
mutagenic call (Test System: AMES SALMONELLA TYPHIMURIUM, Strain/Indicator: TA100, Metabolic Activation: RAT, LIVER, S-9, AROCLOR 1254, Method: STANDARD PLATE): inactive; negative

c1cc[c]([Sb]([c]2ccccc2)[c]2ccccc2)cc1
mutagenic call (Test System: AMES SALMONELLA TYPHIMURIUM, Strain/Indicator: TA1535, Metabolic Activation: RAT, LIVER, S-9, AROCLOR 1254, Method: STANDARD PLATE): active; positive
mutagenic call (Test System: Mouse lymphoma, Strain/Indicator: L5178Y (tk+/tk-), Metabolic Activation: None, Method: Suspension/plate): inactive; negative
mutagenic call (Test System: Mouse lymphoma, Strain/Indicator: L5178Y (tk+/tk-), Metabolic Activation: Rat, Liver, S-9, Aroclor 1254, Method: Suspension/plate): active; equivocal (previous evaluation positive)

CCCCCCOC(=O)NO
mutagenic call (Test System: E. COLI, Strain/Indicator: WP2 UVRA, Metabolic Activation: NONE, Method: FLUCTUATION TEST): active; positive

COC1=C[C@@H]2[C@@H]3Cc4ccc(OC)c(O)c4[C@]2(CCN3C)CC1=O
mutagenic call (Test System: AMES SALMONELLA TYPHIMURIUM, Strain/Indicator: TA98, Metabolic Activation: RAT, LIVER, S-9, PHENOBARBITAL AND BETA-NAPHTHOFLAVONE, Method: PREINCUBATION): inactive; negative
mutagenic call (Test System: AMES SALMONELLA TYPHIMURIUM, Strain/Indicator: TA100, Metabolic Activation: RAT, LIVER, S-9, PHENOBARBITAL AND BETA-NAPHTHOFLAVONE, Method: PREINCUBATION): inactive; negative

Cc1cc2c(nc1N)[nH]c1ccccc12
mutagenic call (Test System: AMES SALMONELLA TYPHIMURIUM, Strain/Indicator: TA98, Metabolic Activation: RAT, LIVER, S-9, AROCLOR 1254, Method: PREINCUBATION): active; positive
mutagenic call (Test System: AMES SALMONELLA TYPHIMURIUM, Strain/Indicator: TA100, Metabolic Activation: RAT, LIVER, S-9, AROCLOR 1254, Method: PREINCUBATION): active; positive
mutagenic call (Test System: AMES SALMONELLA TYPHIMURIUM, Strain/Indicator: YG1019, Metabolic Activation: RAT LIVER S-9, AROCLOR, Method: PREINCUBATION): active; positive

COc1cccc(C=O)c1O
mutagenic call [3]: inactive; negative
mutagenic call [1]: inactive; negative
mutagenic call (Test System: E. COLI, Strain/Indicator: CM561 LEXA, Metabolic Activation: NONE, Method: STANDARD PLATE): inactive; negative
mutagenic call (Test System: E. COLI, Strain/Indicator: CM611 UVRA/LEXA, Metabolic Activation: NONE, Method: STANDARD PLATE): inactive; negative
mutagenic call [2]: inactive; negative
